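Interpolation was linear, between the two tested concentrations surrounding the appropriate level; five concentrations were tested over 48 hours in 96-well plates. GI50: concentration for 50% inhibition of growth. Definition used: TGI = concentration required for complete inhibition of growth.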
Experiments:
Test in all cases: NCI tumour cell line growth inhibition, 48 h
A549 NSCLC = test system: A549 NSCLC
PC-3 prostate = test system: PC-3 prostate
MDA-MB-435 = test system: MDA-MB-435
HS 578T breast = test system: HS 578T breast
OVCAR-8 ovarian = test system: OVCAR-8 ovarian
SF-539 CNS = test system: SF-539 CNS
U251 CNS = test system: U251 CNS
SF-268 CNS = test system: SF-268 CNS
SK-OV-3 ovarian = test system: SK-OV-3 ovarian
SNB-75 CNS = test system: SNB-75 CNS
CAKI-1 renal = test system: CAKI-1 renal
T-47D breast = test system: T-47D breast
BT-549 breast = test system: BT-549 breast
HCT-15 colon = test system: HCT-15 colon
786-0 renal = test system: 786-0 renal
HCT-116 colon = test system: HCT-116 colon
A498 renal = test system: A498 renal
RPMI-8226 leukemia = test system: RPMI-8226 leukemia
SK-MEL-28 melanoma = test system: SK-MEL-28 melanoma
DU-145 prostate = test system: DU-145 prostate
KM12 colon = test system: KM12 colon
NCI-H460 lung = test system: NCI-H460 lung
RXF 393 renal = test system: RXF 393 renal
HCC-2998 colon = test system: HCC-2998 colon
NCI-H23 lung = test system: NCI-H23 lung
HOP-92 NSCLC = test system: HOP-92 NSCLC
NCI-H522 lung = test system: NCI-H522 lung
ACHN renal = test system: ACHN renal
IGROV1 ovarian = test system: IGROV1 ovarian
NCI/ADR-RES ovarian = test system: NCI/ADR-RES ovarian
LOX IMVI melanoma = test system: LOX IMVI melanoma
SN12C renal = test system: SN12C renal
UO-31 renal = test system: UO-31 renal
OVCAR-5 ovarian = test system: OVCAR-5 ovarian
M14 melanoma = test system: M14 melanoma
UACC-257 melanoma = test system: UACC-257 melanoma
HL-60(TB) leukemia = test system: HL-60(TB) leukemia
COLO 205 colon = test system: COLO 205 colon
OVCAR-3 ovarian = test system: OVCAR-3 ovarian
HOP-62 NSCLC = test system: HOP-62 NSCLC
SK-MEL-2 melanoma = test system: SK-MEL-2 melanoma
K-562 leukemia = test system: K-562 leukemia
TK-10 renal = test system: TK-10 renal
SNB-19 CNS = test system: SNB-19 CNS
EKVX NSCLC = test system: EKVX NSCLC
SF-295 CNS = test system: SF-295 CNS
MDA-MB-231 breast = test system: MDA-MB-231 breast
HT29 colon = test system: HT29 colon
NCI-H226 lung = test system: NCI-H226 lung
SK-MEL-5 melanoma = test system: SK-MEL-5 melanoma
UACC-62 melanoma = test system: UACC-62 melanoma
MOLT-4 leukemia = test system: MOLT-4 leukemia
SW-620 colon = test system: SW-620 colon
OVCAR-4 ovarian = test system: OVCAR-4 ovarian
SR leukemia = test system: SR leukemia
MCF7 breast = test system: MCF7 breast
CCRF-CEM leukemia = test system: CCRF-CEM leukemia
MALME-3M melanoma = test system: MALME-3M melanoma

SMILES: COC(=O)[C@]1(C)CCC[C@@]2(C)C3=C(CC[C@H]12)C[C@@H](CC(OC(C)=O)OC(C)=O)[C@@H](C)C3
- GI50 (A549 NSCLC): 15.4 µM
- TGI (A549 NSCLC): > 43.6 µM
- GI50 (PC-3 prostate): 11.4 µM
- TGI (PC-3 prostate): > 29 µM
- GI50 (MDA-MB-435): 9.96 µM
- TGI (MDA-MB-435): 20.5 µM
- GI50 (HS 578T breast): 10.9 µM
- TGI (HS 578T breast): 23 µM
- GI50 (OVCAR-8 ovarian): 10.2 µM
- TGI (OVCAR-8 ovarian): 20.5 µM
- GI50 (SF-539 CNS): 10.7 µM
- TGI (SF-539 CNS): 20.3 µM
- GI50 (U251 CNS): 13.4 µM
- TGI (U251 CNS): > 28.9 µM
- GI50 (SF-268 CNS): 7.85 µM
- TGI (SF-268 CNS): 16.9 µM
- GI50 (SK-OV-3 ovarian): 20.7 µM
- TGI (SK-OV-3 ovarian): > 50 µM
- GI50 (SNB-75 CNS): 14.1 µM
- TGI (SNB-75 CNS): 30.5 µM
- GI50 (CAKI-1 renal): 8.73 µM
- TGI (CAKI-1 renal): 18.2 µM
- GI50 (T-47D breast): 4.17 µM
- TGI (T-47D breast): 13.7 µM
- GI50 (BT-549 breast): 12.8 µM
- TGI (BT-549 breast): 25.2 µM
- GI50 (HCT-15 colon): 15.4 µM
- TGI (HCT-15 colon): > 40.7 µM
- GI50 (786-0 renal): 8.97 µM
- TGI (786-0 renal): 17.2 µM
- GI50 (HCT-116 colon): 8.21 µM
- TGI (HCT-116 colon): 18.9 µM
- GI50 (A498 renal): 11.5 µM
- TGI (A498 renal): 19.9 µM
- GI50 (RPMI-8226 leukemia): 5.23 µM
- TGI (RPMI-8226 leukemia): 27.7 µM
- GI50 (SK-MEL-28 melanoma): 11.5 µM
- TGI (SK-MEL-28 melanoma): 24.5 µM
- GI50 (DU-145 prostate): 10.4 µM
- TGI (DU-145 prostate): 23.3 µM
- GI50 (KM12 colon): 10.1 µM
- TGI (KM12 colon): 22.6 µM
- GI50 (NCI-H460 lung): 9.2 µM
- TGI (NCI-H460 lung): 25.3 µM
- GI50 (RXF 393 renal): 7.03 µM
- TGI (RXF 393 renal): 16.1 µM
- GI50 (HCC-2998 colon): 9.32 µM
- TGI (HCC-2998 colon): 16.3 µM
- GI50 (NCI-H23 lung): 9.15 µM
- TGI (NCI-H23 lung): 16.7 µM
- GI50 (HOP-92 NSCLC): 9.95 µM
- TGI (HOP-92 NSCLC): 19.9 µM
- GI50 (NCI-H522 lung): > 28 µM
- TGI (NCI-H522 lung): > 50 µM
- GI50 (ACHN renal): 13.9 µM
- TGI (ACHN renal): > 28.2 µM
- GI50 (IGROV1 ovarian): 14.5 µM
- TGI (IGROV1 ovarian): > 37.1 µM
- GI50 (NCI/ADR-RES ovarian): 8.95 µM
- TGI (NCI/ADR-RES ovarian): 16.3 µM
- GI50 (LOX IMVI melanoma): > 50 µM
- TGI (LOX IMVI melanoma): > 50 µM
- GI50 (SN12C renal): 9.42 µM
- TGI (SN12C renal): 20.6 µM
- GI50 (UO-31 renal): 10.6 µM
- TGI (UO-31 renal): 24.8 µM
- GI50 (OVCAR-5 ovarian): 9.89 µM
- TGI (OVCAR-5 ovarian): 18.4 µM
- GI50 (M14 melanoma): 11.1 µM
- TGI (M14 melanoma): 20 µM
- GI50 (UACC-257 melanoma): 10.1 µM
- TGI (UACC-257 melanoma): 19.7 µM
- GI50 (HL-60(TB) leukemia): 14.4 µM
- TGI (HL-60(TB) leukemia): > 50 µM
- GI50 (COLO 205 colon): 11 µM
- TGI (COLO 205 colon): 27.4 µM
- GI50 (OVCAR-3 ovarian): 10.7 µM
- TGI (OVCAR-3 ovarian): 27.9 µM
- GI50 (HOP-62 NSCLC): 11.3 µM
- TGI (HOP-62 NSCLC): 23.4 µM
- GI50 (SK-MEL-2 melanoma): 15.9 µM
- TGI (SK-MEL-2 melanoma): > 37.4 µM
- GI50 (K-562 leukemia): 14.7 µM
- TGI (K-562 leukemia): > 50 µM
- GI50 (TK-10 renal): 13.5 µM
- TGI (TK-10 renal): 27.2 µM
- GI50 (SNB-19 CNS): 13.5 µM
- TGI (SNB-19 CNS): 32.1 µM
- GI50 (EKVX NSCLC): 11.7 µM
- TGI (EKVX NSCLC): 23.9 µM
- GI50 (SF-295 CNS): 11 µM
- TGI (SF-295 CNS): 26.7 µM
- GI50 (MDA-MB-231 breast): 8.81 µM
- TGI (MDA-MB-231 breast): 19.2 µM
- GI50 (HT29 colon): 18 µM
- TGI (HT29 colon): > 50 µM
- GI50 (NCI-H226 lung): 11.2 µM
- TGI (NCI-H226 lung): 31.1 µM
- GI50 (SK-MEL-5 melanoma): 8.4 µM
- TGI (SK-MEL-5 melanoma): 15.6 µM
- GI50 (UACC-62 melanoma): 8.82 µM
- TGI (UACC-62 melanoma): 19.4 µM
- GI50 (MOLT-4 leukemia): 18.5 µM
- TGI (MOLT-4 leukemia): > 50 µM
- GI50 (SW-620 colon): 11 µM
- TGI (SW-620 colon): 22.7 µM
- GI50 (OVCAR-4 ovarian): 14.4 µM
- TGI (OVCAR-4 ovarian): 47.4 µM
- GI50 (SR leukemia): 11.2 µM
- TGI (SR leukemia): > 50 µM
- GI50 (MCF7 breast): 7.99 µM
- TGI (MCF7 breast): 18.5 µM

SMILES: C=CC(=O)N1C/C(=C\c2ccc(OC)cc2)C(=O)/C(=C/c2ccc(OC)cc2)C1
- TGI (A549 NSCLC): 8.16 µM
- TGI (PC-3 prostate): 4.19 µM
- TGI (MDA-MB-435): 7.76 µM
- TGI (HS 578T breast): > 28.7 µM
- TGI (OVCAR-8 ovarian): > 24.2 µM
- TGI (CCRF-CEM leukemia): > 25.7 µM
- TGI (SF-539 CNS): 3.53 µM
- TGI (U251 CNS): 6.43 µM
- TGI (SF-268 CNS): 17.1 µM
- TGI (SK-OV-3 ovarian): 8.39 µM
- TGI (SNB-75 CNS): 27.3 µM
- TGI (MALME-3M melanoma): 8.4 µM
- TGI (CAKI-1 renal): 11.7 µM
- TGI (T-47D breast): > 100 µM
- TGI (BT-549 breast): 6.24 µM
- TGI (HCT-15 colon): 4.23 µM
- TGI (786-0 renal): 4.17 µM
- TGI (HCT-116 colon): 0.686 µM
- TGI (A498 renal): 3.54 µM
- TGI (RPMI-8226 leukemia): > 100 µM
- TGI (SK-MEL-28 melanoma): 10.8 µM
- TGI (DU-145 prostate): 23.1 µM
- TGI (KM12 colon): 5.22 µM
- TGI (NCI-H460 lung): 6.82 µM
- TGI (RXF 393 renal): 3.23 µM
- TGI (HCC-2998 colon): 2.87 µM
- TGI (NCI-H23 lung): 4.79 µM
- TGI (HOP-92 NSCLC): 27 µM
- TGI (ACHN renal): 3.47 µM
- TGI (IGROV1 ovarian): > 21.4 µM
- TGI (NCI/ADR-RES ovarian): > 31 µM
- TGI (LOX IMVI melanoma): 3.37 µM
- TGI (SN12C renal): 6.83 µM
- TGI (UO-31 renal): 3.52 µM
- TGI (OVCAR-5 ovarian): 16.2 µM
- TGI (M14 melanoma): 4.78 µM
- TGI (UACC-257 melanoma): > 31.6 µM
- TGI (HL-60(TB) leukemia): > 100 µM
- TGI (COLO 205 colon): 9.99 µM
- TGI (OVCAR-3 ovarian): 5.67 µM
- TGI (HOP-62 NSCLC): 11.2 µM
- TGI (SK-MEL-2 melanoma): 8.57 µM
- TGI (K-562 leukemia): > 100 µM
- TGI (TK-10 renal): > 36.1 µM
- TGI (SNB-19 CNS): 28.3 µM
- TGI (EKVX NSCLC): 40.7 µM
- TGI (SF-295 CNS): 6.98 µM
- TGI (MDA-MB-231 breast): 7.98 µM
- TGI (HT29 colon): 2.88 µM
- TGI (NCI-H226 lung): 4.6 µM
- TGI (SK-MEL-5 melanoma): > 20.4 µM
- TGI (UACC-62 melanoma): 4.37 µM
- TGI (MOLT-4 leukemia): > 27.8 µM
- TGI (SW-620 colon): 8.02 µM
- TGI (OVCAR-4 ovarian): 13.4 µM
- TGI (SR leukemia): > 100 µM
- TGI (MCF7 breast): 5.01 µM
